Literature values as cited in patent US20090196935A1, “Pharmaceutical Capsules Comprising Extended Release Dipyridamole Pellets” (priority 2008, published 2009).

Assays:
[1] = in vivo
[2] = not given; remark: listed apart in the source

## OCCN(CCO)c1nc(N2CCCCC2)c2nc(N(CCO)CCO)nc(N3CCCCC3)c2n1 [Dipyridamole, 2,6-bis-(diethanolamino)-4,8-dipiperidino-(5,4-d)-pyrimidine]
[1]
  biological half-life: less than one hour
other
  pKa: 6.1
[2]; acidic mediums with a pH below 4
  solubility in acidic mediums: soluble
[2]; dilute acids
  solubility in dilute acids: soluble
[2]; water
  solubility in water: practically insoluble
[2]; water at a pH greater than 4
  solubility in water at a pH greater than 4: practically insoluble
[2]; weak base, medium not stated
  solubility: poor solubility
